Assay results published in US20100197688A1, “EPHA4 RTK INHIBITORS FOR TREATMENT OF NEUROLOGICAL AND NEURODEGENERATIVE DISORDERS AND CANCER” (priority 2008, published 2010).

Tests used:
[1] = system: Jak2/Stat3 activation with Interferon Gamma in MCF-7 cells; experiment: Cell-based counterscreen assay (IFN-γ activated Jak2/Stat3, pGAS-luciferase); conditions: for IC50: Homo sapiens, MCF7, inflexion point, read-out: Cell Counter Screen Assay IP
Description: EphA4 cell-based assay was based on the signaling pathway of EphA4, which involves activation of the tyrosine kinase Jak2 and the transcriptional activator Stat3. However, pharmacological agents could also interfere downstream of EphA4 signaling and particularly on Jak2 activity. To counterscreen this potential effect unrelated to EphA4 activity, a new assay was designed based on direct activation of the tyrosine kinase Jak2 and the transcriptional activator Stat3 with Interferon Gamma (IFN-γ).
MCF-7 cells were maintained in MEM growth media, supplemented with 10% fetal bovine serum, 2 mM L-glutamine, 1.5 g/L sodium bicarbonate, 0.1 mM non-essential amino acids, 1 mM sodium pyruvate, and 0.01 mg/ml bovine insulin. For the luciferase assay MCF-7 cells were co-transfected the next day with […] of pGAS-Luc and […] of empty vector pRL-CMV, which encoded the Renilla luciferase, and was included in the transfection mix for normalization. Six hours after transfection the cells were trypsinized and plated at 4.105 cells/ml into 96 well Black/Clear Poly-D-Lysine coated plates (Biocoat) that had been pre-spotted with compounds. […] Cells were lysed the next day using the Reporter Lysis Buffer (Promega), and the luciferase activity was measured using the Dual Luciferase Assay (Promega) following the manufacturer's directions. The Firefly and Renilla luminescences are read consecutively on a Top-Count (Perkin-Elmer).
Results are expressed as a ratio of the two luminsescence: Firefly Luciferase/Renilla Luciferase. Cell viability was assessed on parallel plates using the Cell Glo Assay (Promega) following the manufacturer's directions. Results are expressed as percent of cell death in comparison with vehicle-treated wells.
Compounds were titrated in duplicate at 10 points concentration starting at 100 μM with a 1.5 fold increment. Concentration-response curves were represented and the concentrations at the inflexion point (IP) were calculated. The maximum effect was given by the maximum percent inhibition calculated from the results of the control wells (containing only DMSO).

P60c-src = target: T1, P60c-src (Homo sapiens, UniProt P12931); experiment: Src kinase counterscreen enzymatic assay (TR-FRET); assay type: biochemical; conditions: 0.5 μM ATP
T1 construct: purchased Upstate biotechnology, USA
Method: (§1) Counterscreen assays were developed for the tyrosine kinases src kinase and jak2 kinase, with a format essentially identical to the EphA4 kinase TR-FRET format. Jak2 (50 ng) (Cell Signaling, USA) was incubated with 0.5 μM of biotinylated FLT3 peptide (Cell Signaling, USA) in presence of 5 μM of ATP (Sigma). P60c-src (10 U/well) (Upstate biotechnology, USA) was incubated with biotinylated Poly(Glu Tyr) peptide (100 nM) in presence of 0.5 μM of ATP. The enzymatic reaction was stopped after 60 min by adding 15 mM EDTA. The detection reaction and energy transfer signal measurements were similar to those previously described. Results were expressed as ratios of the absorbencies 665/615.
(§2) Compounds were titrated in duplicate at 11 points concentration starting at 100 μM with a 3 fold increment. Compounds were diluted in DMSO. […] Percentage inhibition for each compound was then calculated based on the value of the 100% inhibition. Concentration-response curves were represented and the concentrations for 50% inhibition (IC50) were calculated.

Jak2 = target: T2, Jak2 (Homo sapiens, UniProt O60674); experiment: Jak2 kinase counterscreen enzymatic assay (TR-FRET); assay type: biochemical; conditions: 5 μM ATP
T2 construct: purchased Cell Signaling, USA
Method: as §1, §2

EphA4 kinase = target: T3, EphA4 kinase (Homo sapiens, UniProt P54764); experiment: EphA4 kinase enzymatic assay (TR-FRET); assay type: biochemical; conditions: for IC50: 25 μM ATP, recombinant His6-TEV-EphA4 (aa. 615-911); for EphA4 Kinase max inhibition in %: maximum percent inhibition (value in parentheses)
T3 construct: His6-TEV-EphA4 (36 KD) (aa. 615-911); His6 (N); TEV cleavage site (N); made in house; host or cells: Sf9 (baculovirus)
T3 sequence (P54764 615-911): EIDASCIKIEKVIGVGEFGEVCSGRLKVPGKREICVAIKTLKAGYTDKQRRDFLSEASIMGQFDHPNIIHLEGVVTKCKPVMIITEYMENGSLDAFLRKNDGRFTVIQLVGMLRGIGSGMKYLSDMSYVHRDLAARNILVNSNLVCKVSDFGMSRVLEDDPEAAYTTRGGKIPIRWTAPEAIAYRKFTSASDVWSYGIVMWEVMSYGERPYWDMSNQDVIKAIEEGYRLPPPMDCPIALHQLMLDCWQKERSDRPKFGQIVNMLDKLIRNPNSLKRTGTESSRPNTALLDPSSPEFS
Method: Recombinant EphA4 kinase His6-TEV-EphA4 (36 KD) (aa. 615-911) was expressed in Sf9 using baculovirus expression system. Hi-tagged protein was purified by high performance liquid chromatography in two step, using a His Trap HP column and a heparin column. The potency of compounds to inhibit EphA4 kinase phosphorylation was measured by an enzymatic assay based on time resolved fluorescence energy transfer assay format (TR-FRET), using Eu-W1024 anti-pTyr antibody (Perkin Elmer, USA) as a donor and SureLight APC (Perkin Elmer, USA) as an acceptor.
Biotinylated Poly(Glu Tyr) peptide (50 nM) was incubated in 384-well with 25 μM ATP (Sigma) and 10 ng EphA4 kinase in NEBuffer (New England Biolabs) for 60 minutes at rt. The reaction was stopped by 15 mM of EDTA solution for 10 minutes at rt. The detection mixture containing 0.5 nM Eu-W1024 anti-pTyr antibody (Perkin Elmer, USA) and 50 nM SureLight APC (Perkin Elmer, USA) was added to the wells and the plate was incubated for 30 min at rt, while protected from light. Energy transfer signal was measured using a Victor 2V (excitation filter 340, emission filter 615 and 665, delay time 50 μs). Results were expressed as ratios of the absorbencies 665/615.
as §2

T1 sequence (P12931 whole entry): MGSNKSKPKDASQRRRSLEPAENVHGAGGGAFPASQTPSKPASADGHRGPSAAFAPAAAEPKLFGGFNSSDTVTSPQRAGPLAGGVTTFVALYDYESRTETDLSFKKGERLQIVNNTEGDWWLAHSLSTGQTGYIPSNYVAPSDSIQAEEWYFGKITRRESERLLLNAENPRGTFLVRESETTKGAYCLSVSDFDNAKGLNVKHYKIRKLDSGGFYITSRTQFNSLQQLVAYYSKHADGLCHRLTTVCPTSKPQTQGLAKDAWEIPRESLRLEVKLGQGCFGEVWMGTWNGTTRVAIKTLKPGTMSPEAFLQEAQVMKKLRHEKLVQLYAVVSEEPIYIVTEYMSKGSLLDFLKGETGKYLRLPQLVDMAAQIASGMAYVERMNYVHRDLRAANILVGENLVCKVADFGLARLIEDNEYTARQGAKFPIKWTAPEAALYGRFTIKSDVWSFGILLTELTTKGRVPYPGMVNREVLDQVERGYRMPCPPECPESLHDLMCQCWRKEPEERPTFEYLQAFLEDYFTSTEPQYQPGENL
T2 sequence (O60674 whole entry, species assumed): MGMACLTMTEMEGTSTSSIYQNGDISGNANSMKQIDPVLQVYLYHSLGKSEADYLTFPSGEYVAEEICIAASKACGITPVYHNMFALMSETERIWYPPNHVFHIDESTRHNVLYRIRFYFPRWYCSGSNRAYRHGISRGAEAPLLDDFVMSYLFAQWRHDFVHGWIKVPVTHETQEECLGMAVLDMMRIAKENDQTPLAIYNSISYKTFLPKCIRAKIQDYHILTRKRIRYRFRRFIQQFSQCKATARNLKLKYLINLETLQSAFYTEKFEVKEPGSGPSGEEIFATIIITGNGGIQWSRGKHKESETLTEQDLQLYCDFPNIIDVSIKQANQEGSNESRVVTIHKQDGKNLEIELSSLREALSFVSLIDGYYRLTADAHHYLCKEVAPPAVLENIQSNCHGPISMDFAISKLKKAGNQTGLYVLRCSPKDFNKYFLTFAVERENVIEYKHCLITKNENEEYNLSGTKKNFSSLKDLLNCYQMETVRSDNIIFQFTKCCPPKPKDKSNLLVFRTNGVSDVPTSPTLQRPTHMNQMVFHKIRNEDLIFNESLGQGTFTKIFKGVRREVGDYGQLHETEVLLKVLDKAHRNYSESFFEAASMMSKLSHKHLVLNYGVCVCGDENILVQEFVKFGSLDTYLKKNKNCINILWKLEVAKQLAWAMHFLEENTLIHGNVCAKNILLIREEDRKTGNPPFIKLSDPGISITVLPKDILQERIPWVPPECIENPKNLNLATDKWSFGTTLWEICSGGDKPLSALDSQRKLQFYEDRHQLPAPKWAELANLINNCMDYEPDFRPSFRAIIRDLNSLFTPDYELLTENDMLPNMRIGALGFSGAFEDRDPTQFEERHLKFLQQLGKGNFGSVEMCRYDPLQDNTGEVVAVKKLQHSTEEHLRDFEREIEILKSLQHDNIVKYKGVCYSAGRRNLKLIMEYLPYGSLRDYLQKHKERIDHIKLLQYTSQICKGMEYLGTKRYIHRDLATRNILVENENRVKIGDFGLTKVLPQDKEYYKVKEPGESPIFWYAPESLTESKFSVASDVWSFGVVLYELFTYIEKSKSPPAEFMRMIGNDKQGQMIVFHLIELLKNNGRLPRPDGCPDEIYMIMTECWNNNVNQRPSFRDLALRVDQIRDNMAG

SMILES: Cc1ccc(NC(=O)c2cccc(C(F)(F)F)c2)cc1-c1ccc(-n2cccn2)cc1 [Example 120]
- IC50 [1]: > 100 µM
- IC50 (P60c-src): > 100 µM
- IC50 (Jak2): > 100 µM
- IC50 (EphA4 kinase): 1.59 µM
- EphA4 Kinase max inhibition in % (EphA4 kinase): 70%

SMILES: Cc1ccc(NC(=O)c2cccc(C(F)(F)F)c2)cc1-c1ccc(O)c(NC=O)c1 [Example 133]
- IC50 [1]: 1.7 µM
- Cell Counter Screen Assay max inhibition in % ([1]; value in parentheses): 99%
- IC50 (P60c-src): > 100 µM
- IC50 (Jak2): > 100 µM
- IC50 (EphA4 kinase): 4.8 µM
- EphA4 Kinase max inhibition in % (EphA4 kinase): 93%
